Earlier results, collected in patent US9446036B2, “Compositions of a polyorthoester and an aprotic solvent” (Heron Therapeutics, Inc., priority 2013, dated 2016).

Details: room temperature (20-25° C.)

Row | Compound | Water Miscibility
1 | CC1COC(=O)O1 (centres unmarked) [4-methyl-1,3-diololan-2-one] | water miscible
2 | O=C(OCc1ccccc1)c1ccccc1 [benzyl benzoate] | poorly miscible
3 | CN1CCCC1=O [N-methyl-2-pyrrolidone (NMP), N-methyl-2-pyrrolidone] | water miscible
4 | CCCCCCCCCCCCCC(=O)OC(C)C [isopropyl myristate] | poorly miscible
5 | CCOC(=O)C(C)O (centres unmarked) [ethyl lactate] | water miscible
6 | O=C1CCCCCO1 [ester-caprolactone] | water miscible
7 | COC(=O)C(C)O (centres unmarked) [methyl lactate] | water miscible
8 | CCN1CCCC1=O [n-ethyl-2-pyrrolidone] | water miscible
9 | O=C1CCCN1C1CCCCC1 [N-cyclohexyl-2-pyrrolidone] | poorly miscible
10 | C[S+](C)[O-] [dimethyl sulfoxide] | water miscible
11 | COC(C)=O [methyl acetate] | water miscible
12 | CCOC(C)=O [ethyl acetate] | partially miscible
13 | C1CCOC1 [tetrahydrofuran] | water miscible
14 | CCCCCCCC/C=C\CCCCCCCC(=O)OCC [ethyl oleate] | poorly miscible
